Earlier results, collected in US20140194400A1, “Nasal Pharmaceutical Formulation” (Meda Pharma GmbH & Co., Kg, priority 2011, published 2014).

- oral absorption: about 1%
SMILES: C[C@@H]1C[C@H]2[C@@H]3C[C@H](F)C4=CC(=O)C=C[C@]4(C)[C@@]3(F)[C@@H](O)C[C@]2(C)[C@@]1(O)C(=O)SCF [fluticasone]
